Assay results published in patent US8435983B2, “Conformationally restrained epothilone analogues as anti-leukemic agents” (The University of Toledo, priority 2007, dated 2013).
Like-named read-outs stand apart in the source and are kept apart here.

Tests used:
[1] = system: BCF-7 breast cancer cells; test: preliminary growth inhibition assay on BCF-7 breast cancer cells; format: cell-based
SR leukemia cell line [2] = test: NCI in vitro 60 cell line human tumor screen, SR; format: cell-based; conditions: NCI 60 cell line screen
[3] = system: CCRF-CEM leukemia cell line; test: NCI in vitro 60 cell line human tumor screen, CCRF-CEM; format: cell-based; conditions: NCI 60 cell line screen
[4] = system: NCI 60 human tumor cell lines, including breast cancer and ovarian cancer cell lines; test: NCI in vitro 60 cell line human tumor screen, cell line panel; format: cell-based
[5] = system: CCRF-CEM leukemia cell line; conditions: comparison value for paclitaxel; cited from earlier work
SR leukemia cell line [6] = conditions: comparison value for paclitaxel; cited from earlier work

CC1=C(c2ccccc2)C[C@H]2/C=C(/C)CCC[C@H](C)[C@H](O)[C@@H](C)C(=O)C(C)(C)[C@@H](O)CC(=O)O[C@H]12 [Compound 1a]
growth inhibition [1]: no activity

CC1=C(c2ccc(C)cn2)C[C@H]2/C=C(/C)CCC[C@H](C)[C@H](O)[C@@H](C)C(=O)C(C)(C)[C@@H](O)CC(=O)O[C@H]12 [Compound 1b, (3S,6R,7S,8S,1′S,5′S)-7,11-Dihydroxy-3,8,8,10,12,16-hexamethyl-2-(5-methyl-pyridin-2-yl)-3a,7,8,10,11,12,13,14,15,17a-decahydro-1H,6H-4-oxa-cyclopentacyclohexadecene-5,9-dione]
GI50 (SR leukemia cell line [2]): 2.9 nM | GI50 [3]: 2.7 nM | growth inhibitory activity on the other NCI 60 cell lines ([4]; all lines other than CCRF-CEM and SR, including breast cancer and ovarian cancer cell lines): no significant activity

C=C(C)CCC[C@H](C)[C@H](O)[C@@H](C)C(=O)C(C)(C)[C@@H](O)CC(=O)O[C@@H]1C(C)=C(c2ccc(C)cn2)C[C@H]1/C=C/c1ccccc1 [Compound 35, 3,7-Dihydroxy-4,4,6,8,12-pentamethyl-5-oxo-tridec-12-enoic acid 2-methyl-3-(5-methyl-pyridin-2-yl)-5-styryl-cyclopent-2-enyl ester]
activity in the NCI 60 cell line assay ([4]; any of the cell lines): no significant activity

CC(=O)O[C@H]1C(=O)[C@@]2(C)[C@H]([C@H](OC(=O)c3ccccc3)[C@]3(O)C[C@H](OC(=O)[C@H](O)[C@@H](NC(=O)c4ccccc4)c4ccccc4)C(C)=C1C3(C)C)[C@]1(OC(C)=O)CO[C@@H]1C[C@@H]2O [paclitaxel]
GI50 [5]: 12.6 nM | GI50 (SR leukemia cell line [6]): 15.8 nM
